Measured values from patent publication US12286451B2, “Borate ester complexes of α-hydroxy carboxylic acids and their conjugate base buffers” (Medtech Products Inc., priority 2020, dated 2025).

Key:
[1] = Equivalence titration (0.5 milliequivalent) of reaction products with 0.1N sodium hydroxide; assay type: physicochemical; settings: equivalent titration; for pKa: volume adjusted to 0.5 milliequivalent; for Capacity (buffer capacity): titrant required to raise the pH one unit from the pKa value
Procedure: (§1) Reaction products of boric acid and α-hydroxy carboxylic acids were prepared by diluting pre-made stock solution of 0.4M boric acid and 0.4M, 0.6M, and 0.8M α-hydroxy carboxylic acid. [table] Each reaction mixture was allowed to mix for a minimum of two hours before subsequent titration with 0.1N certified sodium hydroxide solution. Two sets of titrations were performed. The first set of titrations, molar titration, 5.0 ml of each solution is titrated to accurately determine end point and the pKa and pH at half of the end point. The second set of titrations, equivalence titration, solution volumes were adjusted to 0.5 milliequivalent and the buffer capacity determined. For simplicity, buffer capacity is reported as the milliequivalents of titrant required to raise the pH one unit from the pKa value. An exception was made for the 1:3 test ratio in which free α-hydroxy acid and the boric acid ester complex could not be distinguished between.

[2] = Molar titration of boric acid/α-hydroxy acid reaction products with 0.1N sodium hydroxide; assay type: physicochemical; settings: for pKa: 5.0 ml solution, pH at half of the end point; for Capacity (buffer capacity): titrant required to raise the pH one unit from the pKa value
Procedure: as §1

pKa [1] | Capacity (buffer capacity) [1] | pKa [2] | Capacity (buffer capacity) [2] | SMILES
4.3 | 39 milliequivalents | 4.3 | 39 milliequivalents | O=C(O)CC(O)(CC(=O)O)C(=O)O [Citric Acid 0, Citric Acid]
3.9 | 13 milliequivalents | 3.9 | 13 milliequivalents | O=C(O)CO [Glycolic Acid 0, Glycolic Acid]
4 | 11 milliequivalents | 4 | 11 milliequivalents | CC(O)C(=O)O (stereo not drawn) [Lactic Acid 0, Lactic Acid]
